The numbers were not newly measured in patent US20250213503A1, “TREATMENT OF CANCER WITH S1P RECEPTOR AGONISTS” (PRIOTHERA SAS, priority 2022, published 2025), which cites them from elsewhere.

This data set has as its target S1PR1 (Homo sapiens, UniProt P21453).

S1PR1, sequence (P21453 whole entry, species assumed): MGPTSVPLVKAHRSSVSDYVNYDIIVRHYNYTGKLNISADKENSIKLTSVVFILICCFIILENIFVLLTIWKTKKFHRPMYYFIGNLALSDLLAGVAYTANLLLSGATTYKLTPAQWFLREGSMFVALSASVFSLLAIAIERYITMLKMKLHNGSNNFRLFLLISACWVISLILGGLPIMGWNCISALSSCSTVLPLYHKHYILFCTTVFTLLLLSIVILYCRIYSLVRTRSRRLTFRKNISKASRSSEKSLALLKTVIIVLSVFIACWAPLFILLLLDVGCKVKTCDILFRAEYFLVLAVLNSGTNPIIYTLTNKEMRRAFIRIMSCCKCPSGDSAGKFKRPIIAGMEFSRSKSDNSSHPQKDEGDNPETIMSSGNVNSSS

Take `CCCCCCCCc1ccc(CCC(N)(CO)CO)cc1` [FTY720]: the “selectivity for S1PR1 versus S1PR3-5” value is recorded as “poor selectivity for S1PR1 versus S1PR3-5”.
